# Reference: ChEMBL document CHEMBL3853335, “Citrinovirin with a new norditerpene skeleton from the marine algicolous fungus Trichoderma citrinoviride” (Bioorg Med Chem Lett, 2016)
# Legend:
# Chattonella marina = test: Growth inhibition of Chattonella marina at 100 ug/ml after 12 hrs by light microscopy; type: functional
# [1] = Toxicity in Artemia salina assessed as lethality after 24 hrs
# Prorocentrum donghaiense = test: Growth inhibition of Prorocentrum donghaiense at 100 ug/ml after 12 hrs by light microscopy; type: functional
# Heterosigma akashiwo = test: Growth inhibition of Heterosigma akashiwo at 100 ug/ml after 12 hrs by light microscopy; type: functional
# Scrippsiella trochoidea = test: Growth inhibition of Scrippsiella trochoidea at 100 ug/ml after 12 hrs by light microscopy; type: functional
# Staphylococcus aureus = test: Antimicrobial activity against Staphylococcus aureus after 24 hrs by agar diffusion method; type: functional
# Colletotrichum lagenaria = test: Antimicrobial activity against Colletotrichum lagenarium after 24 hrs by agar diffusion method; type: functional
# [2] = test system: Colletotrichum gloeosporioides; test: Antimicrobial activity against Colletotrichum gloeosporioides after 24 hrs by agar diffusion method; type: functional
# Escherichia coli = test: Antimicrobial activity against Escherichia coli after 24 hrs by agar diffusion method; type: functional
Compound,growth inhibition (GI) (Chattonella marina) [%],growth inhibition (GI) (Prorocentrum donghaiense) [%],growth inhibition (GI) (Scrippsiella trochoidea) [%],MIC (Staphylococcus aureus) [µg/mL],also measured
CCCC[C@@H](C)[C@@H]1[C@@H]2C=C[C@H]3[C@H](C)[C@@H](O)[C@@H](O)[C@@H]3[C@]1(C)OC2=O,37.2,14.1,-47.2,12.4,LC50 at 24 h [1]: 65.6 µg/mL; inhibition of growth at 100 µg/mL (Heterosigma akashiwo; read-out: GI): 23.4%
C[C@@H]1[C@H](O)[C@@H](C)/C=C/C=C/C=C/C=C/C=C/C=C/C=C/[C@H](O[C@@H]2O[C@H](C)[C@@H](O)[C@H](N)[C@@H]2O)C[C@@H]2O[C@](O)(C[C@@H](O)C[C@@H](O)[C@H](O)CC[C@@H](O)C[C@@H](O)CC(=O)O[C@H]1C)C[C@H](O)[C@H]2C(=O)O [AMPHOTERICIN B],–,–,–,–,MIC (Colletotrichum lagenaria): 12.4 µg/mL; MIC [2]: 12.4 µg/mL
O=C(N[C@H](CO)[C@H](O)c1ccc([N+](=O)[O-])cc1)C(Cl)Cl [CHLORAMPHENICOL],–,–,–,0.8,MIC (Escherichia coli): 1.6 µg/mL
POTASSIUM DICHROMATE [listing 1 of 2 here],–,–,–,–,LC50 ([1]; 24 h): 20.8 µg/mL
POTASSIUM DICHROMATE [listing 2 of 2 here],74.4,71.7,71.9,–,growth inhibition (GI) (Heterosigma akashiwo): 78.4%
